Data as given in patent US8741944B2, “Anti-infective agents against intracellular pathogens” (priority 2007, dated 2014).
Like-named read-outs stand apart in the source and are kept apart here.

Legend:
SF-295 (CNS Cancer) = test: NCI DTP tumor cell line screen (SRB), SF-295
Experimental: (§1) For a typical screening experiment, cells are inoculated into 96 well microtiter plates in 100 μL at plating densities ranging from 5,000 to 40,000 cells/well depending on the doubling time of individual cell lines. After cell inoculation, the microtiter plates are incubated at 37° C., 5% CO2, 95% air and 100% relative humidity for 24 h prior to addition of experimental drugs.
(§2) After 24 h, two plates of each cell line are fixed in situ with TCA, to represent a measurement of the cell population for each cell line at the time of drug addition (Tz). Experimental drugs are solubilized in dimethyl sulfoxide at 400-fold the desired final maximum test concentration and stored frozen prior to use. At the time of drug addition, an aliquot of frozen concentrate is thawed and diluted to twice the desired final maximum test concentration with complete medium containing 50 μg/ml gentamicin. Additional four, 10-fold or ½ log serial dilutions are made to provide a total of five drug concentrations plus control. Aliquots of 100 μl of these different drug dilutions are added to the appropriate microtiter wells already containing 100 μl of medium, resulting in the required final drug concentrations.
(§3) Following drug addition, the plates are incubated for an additional 48 h at 37° C., 5% CO2, 95% air, and 100% relative humidity. For adherent cells, the assay is terminated by the addition of cold TCA. Cells are fixed in situ by the gentle addition of 50 μl of cold 50% (w/v) TCA (final concentration, 10% TCA) and incubated for 60 minutes at 4° C. The supernatant is discarded, and the plates are washed five times with tap water and air dried. Sulforhodamine B (SRB) solution (1001) at 0.4% (w/v) in 1% acetic acid is added to each well, and plates are incubated for 10 minutes at room temperature. After staining, unbound dye is removed by washing five times with 1% acetic acid and the plates are air dried. Bound stain is subsequently solubilized with 10 mM trizma base, and the absorbance is read on an automated plate reader at a wavelength of 515 nm. For suspension cells, the methodology is the same except that the assay is terminated by fixing settled cells at the bottom of the wells by gently adding 50 μl of 80% TCA (final concentration, 16% TCA). Using the seven absorbance measurements [time zero, (Tz), control growth, (C), and test growth in the presence of drug at the five concentration levels (Ti)], the percentage growth is calculated at each of the drug concentrations levels. Percentage growth inhibition is calculated as: [(Ti−Tz)/(C−Tz)]×100 for concentrations for which Ti>/=Tz [(Ti−Tz)/Tz]×100 for concentrations for which Ti<Tz
(§4) Three dose response parameters are calculated for each experimental agent. […] The drug concentration resulting in total growth inhibition (TGI) is calculated from Ti=Tz. […] Values are calculated for each of these three parameters if the level of activity is reached; however, if the effect is not reached or is exceeded, the value for that parameter is expressed as greater or less than the maximum or minimum concentration tested.

[1] = test system: MDA-MB-231/ATCC (Breast Cancer); test: NCI DTP tumor cell line screen (SRB), MDA-MB-231/ATCC
Experimental: as §1, §2, §3, §4

[2] = test system: NCI-H226 (Non-Small Cell Lung Cancer)
Experimental: as §1, §2, §3, §4

SF-268 (CNS Cancer) = test: NCI DTP tumor cell line screen (SRB), SF-268
Experimental: as §1, §2, §3, §4

U251 (CNS Cancer) = test: NCI DTP tumor cell line screen (SRB), U251
Experimental: as §1, §2, §3, §4

COX-2 = COX-2 (Homo sapiens (Human), UniProt P35354); test: COX-2 inhibitory activity; format: biochemical; conditions: concentrations up to 50 μM
Akt = test: Direct inhibition of immunoprecipitated Akt kinase activity; format: biochemical, human
phospho-Akt = test: Western blot analysis of Akt and phospho-Akt in PC-3 cells; format: cell-based, human; conditions: even at 1 μM
Experimental: Immunoblotting. The general procedure for the Western blot analysis of Akt and phospho-Akt is described as follows. Cells were washed in PBS, resuspended in SDS sample buffer sonicated by an ultrasonic sonicator for 5 see, and boiled for 5 min. After brief centrifugation, equivalent protein concentrations from the soluble fractions were resolved in 10% SDS-polyacrylamide gels on a Minigel apparatus, and transferred to a nitrocellulose membrane using a semi-dry transfer cell. The transblotted membrane was washed three times with TBS containing 0.05% Tween 20 (TBST). After blocking with TBST containing 5% nonfat milk for 60 min., the membrane was incubated with the primary antibody at 1:1,000 dilution in TBST-5% low fat milk at 4° C. for 12 h, and was then washed three times with TBST. The membrane was probed with goat anti-rabbit IgG-HRP conjugates (1:1,000) for 1 h at room temperature, and was washed with TBST three times. The immunoblots were visualized by enhanced chemiluminescence.

PC-3 cells [3] = test: Apoptosis analysis in PC-3 cells (DNA fragmentation ELISA, PARP cleavage); format: cell-based, human; conditions: 1% FBS-containing medium
Experimental: Apoptosis analysis Two methods were used to assess drug-induced apoptotic cell death: detection of DNA fragmentation by the Cell Death Detection ELISA kit (Roche Diagnostics. Mannheim, Germany) and Western blot analysis of poly-(ADP-ribose)polymerase (PARP) cleavage. […] In brief, 4×10^5 PC-3 cells were cultured in a T-25 flask for 24 h before treatment. Cells were treated with the DMSO vehicle or the test agent at the indicated concentrations for 6-24 h, collected, and cell lysates equivalent to 2×10^3 PC-3 cells were used in the ELISA. For the PARP cleavage assay, drug-treated cells were collected 4-8 h post-treatment, washed with ice-cold PBS, and resuspended in lysis buffer containing 20 mM Tris-HCl, pH 8, 137 mM NaCl, 1 mM CaCl2, 10% glycerol, 1% Nonidet P-40, 0.5% deoxycholate, 0.1% SDS, 100 μM 4-(2-aminoethyl)benzenesulfonyl fluoride, leupeptin at 10 μg/mL, and aprotinin at 10 μg/mL. Soluble cell lysates were collected after centrifugation at 10,000 g for 5 min. Equivalent amounts of proteins (60-100 μg) from each lysate were resolved in 8% SDS-polyacrylamide gels. Bands were transferred to nitrocellulose membranes, and analyzed by immunoblotting with anti-PARP antibody.

PC-3 cells [4] = test: Cell viability analysis, MTT assay in PC-3 cells; format: cell-based, human; conditions: inducing apoptotic death in PC-3 cells / PC-3 cell viability; read-out: IC50 PC-3
Experimental: Cell Culture PC-3 (p53−/−) human androgen-non-responsive prostate cancer cells were purchased from the American […] (Manassas, Va.). Cells were cultured in RPMI 1640 medium (Gibco, Grand Island, N.Y.) supplemented with 10% fetal bovine serum (FBS; Gibco) at 37° C. in a humidified incubator containing 5% CO2.
Controls received DMSO vehicle at a concentration equal to that in drug-treated cells. The medium was removed, replaced by 200 μl of 0.5 mg/ml of MTT in 10% FBS-containing RPMI-1640 medium, and cells were incubated in the CO2 incubator at 37° C. for 2 h. Supernatants were removed from the wells, and the reduced MTT dye was solubilized in 200 μL/well DMSO. Absorbance at 570 nm was determined on a plate reader.

recombinant PDK-1 = recombinant PDK-1 (Homo sapiens (Human), UniProt O15530); test: PDK-1 kinase activity (PDK-1 kinase assay kit, cell-free); format: biochemical
Experimental: PDK-1 kinase activity This in vitro assay was performed using a PDK-1 kinase assay kit (Upstate, Lake Placid, N.Y.) according to the vendor's instructions. This cell-free assay is based on the ability of recombinant PDK-1, in the presence of DMSO vehicle or the test agent, to activate its downstream kinase serum- and glucocorticoid-regulated kinase (SGK.) which, in turn, phosphorylates the Akt/SGK-specific peptide substrate RPRAATF with [γ-^32]-ATP. […] The reported values represent the means of two independent determinations.

recombinant PDK-1, sequence (O15530 whole entry, looked up): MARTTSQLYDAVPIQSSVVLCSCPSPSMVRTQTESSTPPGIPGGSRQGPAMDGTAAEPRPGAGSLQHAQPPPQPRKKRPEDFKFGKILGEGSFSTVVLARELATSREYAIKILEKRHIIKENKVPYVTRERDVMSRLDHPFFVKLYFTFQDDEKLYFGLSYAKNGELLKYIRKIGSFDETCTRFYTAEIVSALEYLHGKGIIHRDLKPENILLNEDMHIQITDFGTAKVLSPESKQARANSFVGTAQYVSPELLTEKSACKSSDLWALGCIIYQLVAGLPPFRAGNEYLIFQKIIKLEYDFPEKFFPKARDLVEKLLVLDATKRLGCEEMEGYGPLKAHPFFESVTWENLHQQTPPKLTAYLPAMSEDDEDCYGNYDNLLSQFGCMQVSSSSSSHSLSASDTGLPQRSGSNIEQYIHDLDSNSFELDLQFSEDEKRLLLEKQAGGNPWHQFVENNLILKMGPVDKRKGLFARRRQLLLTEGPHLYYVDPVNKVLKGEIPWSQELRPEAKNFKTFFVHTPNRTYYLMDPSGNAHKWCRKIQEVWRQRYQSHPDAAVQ
COX-2, sequence (P35354 whole entry, looked up): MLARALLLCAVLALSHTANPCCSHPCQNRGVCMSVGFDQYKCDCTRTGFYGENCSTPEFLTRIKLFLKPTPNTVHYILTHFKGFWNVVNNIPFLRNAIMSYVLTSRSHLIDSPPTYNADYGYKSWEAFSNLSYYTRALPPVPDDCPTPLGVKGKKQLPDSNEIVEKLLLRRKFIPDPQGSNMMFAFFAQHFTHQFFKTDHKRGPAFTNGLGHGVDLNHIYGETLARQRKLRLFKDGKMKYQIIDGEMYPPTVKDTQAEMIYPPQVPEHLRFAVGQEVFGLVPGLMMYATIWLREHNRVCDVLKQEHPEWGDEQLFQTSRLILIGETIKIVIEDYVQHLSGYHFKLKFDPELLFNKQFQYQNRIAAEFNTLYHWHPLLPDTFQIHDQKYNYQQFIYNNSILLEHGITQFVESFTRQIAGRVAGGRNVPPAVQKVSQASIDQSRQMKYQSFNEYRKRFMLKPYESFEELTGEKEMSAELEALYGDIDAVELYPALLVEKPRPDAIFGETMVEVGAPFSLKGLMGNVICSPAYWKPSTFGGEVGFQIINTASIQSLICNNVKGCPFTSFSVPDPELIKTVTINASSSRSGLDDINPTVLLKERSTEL

With `NCC(=O)Nc1ccc(-n2nc(C(F)(F)F)cc2-c2ccc3c(ccc4ccccc43)c2)cc1` [Compound 70, 2-Amino-N-{4-[5-(2-phenanthrenyl)-3-(trifluoromethyl)-1H-pyrazol-1-yl]-phenyl}-acetamide] the TGI (SF-295 (CNS Cancer)) was 3.71E−06, the “Mean Optical Densities” value (SF-295 (CNS Cancer); Log10 Concentration −4.0) was 0.287 and the “Mean Optical Densities” value (SF-295 (CNS Cancer); Log10 Concentration −5.0) was 0.225. For the same compound, the “Percent Growth” value (SF-295 (CNS Cancer); Log10 Concentration −5.0) was −47%, the “Mean Optical Densities” value (SF-295 (CNS Cancer); Log10 Concentration −6.0) was 0.915 and the “Percent Growth” value (SF-295 (CNS Cancer); Log10 Concentration −6.0) was 62%. The “Mean Optical Densities” value (SF-295 (CNS Cancer); Log10 Concentration −7.0) was 1.190, the “Percent Growth” value (SF-295 (CNS Cancer); Log10 Concentration −7.0) was 96% and the “Mean Optical Densities” value (SF-295 (CNS Cancer); Log10 Concentration −8.0) was 1.173. For the same compound, the “Percent Growth” value (SF-295 (CNS Cancer); Log10 Concentration −8.0) was 94%, the TGI [1] was 2.77E−06 and the “Mean Optical Densities” value ([1]; Log10 Concentration −4.0) was 0.306. The “Mean Optical Densities” value ([1]; Log10 Concentration −5.0) was 0.173, the “Percent Growth” value ([1]; Log10 Concentration −5.0) was −73% and the “Mean Optical Densities” value ([1]; Log10 Concentration −6.0) was 0.843. The “Percent Growth” value ([1]; Log10 Concentration −6.0) was 58%, the “Mean Optical Densities” value ([1]; Log10 Concentration −7.0) was 0.889 and the “Percent Growth” value ([1]; Log10 Concentration −7.0) was 71%. For the same compound, the “Mean Optical Densities” value ([1]; Log10 Concentration −8.0) was 0.988, the “Percent Growth” value ([1]; Log10 Concentration −8.0) was 100% and the TGI [2] was 3.21E−06. For the same compound, the “Mean Optical Densities” value ([2]; Log10 Concentration −4.0) was 0.614, the “Mean Optical Densities” value ([2]; Log10 Concentration −5.0) was 0.505 and the “Percent Growth” value ([2]; Log10 Concentration −5.0) was −58%. For the same compound, the “Mean Optical Densities” value ([2]; Log10 Concentration −6.0) was 1.429, the “Percent Growth” value ([2]; Log10 Concentration −6.0) was 59% and the “Mean Optical Densities” value ([2]; Log10 Concentration −7.0) was 1.586. The “Percent Growth” value ([2]; Log10 Concentration −7.0) was 98%, the “Mean Optical Densities” value ([2]; Log10 Concentration −8.0) was 1.593 and the “Percent Growth” value ([2]; Log10 Concentration −8.0) was 100%. For the same compound, the TGI (SF-268 (CNS Cancer)) was 4.16E−06, the “Mean Optical Densities” value (SF-268 (CNS Cancer); Log10 Concentration −4.0) was 0.280 and the “Mean Optical Densities” value (SF-268 (CNS Cancer); Log10 Concentration −5.0) was 0.252. For the same compound, the “Percent Growth” value (SF-268 (CNS Cancer); Log10 Concentration −5.0) was −33%, the “Mean Optical Densities” value (SF-268 (CNS Cancer); Log10 Concentration −6.0) was 0.789 and the “Percent Growth” value (SF-268 (CNS Cancer); Log10 Concentration −6.0) was 54%. For the same compound, the “Mean Optical Densities” value (SF-268 (CNS Cancer); Log10 Concentration −7.0) was 0.930, the “Percent Growth” value (SF-268 (CNS Cancer); Log10 Concentration −7.0) was 72% and the “Mean Optical Densities” value (SF-268 (CNS Cancer); Log10 Concentration −8.0) was 1.016. For the same compound, the “Percent Growth” value (SF-268 (CNS Cancer); Log10 Concentration −8.0) was 84%, the TGI (U251 (CNS Cancer)) was 2.64E−06 and the “Mean Optical Densities” value (U251 (CNS Cancer); Log10 Concentration −4.0) was 0.320. The “Mean Optical Densities” value (U251 (CNS Cancer); Log10 Concentration −5.0) was 0.144, the “Percent Growth” value (U251 (CNS Cancer); Log10 Concentration −5.0) was −63% and the “Mean Optical Densities” value (U251 (CNS Cancer); Log10 Concentration −6.0) was 0.810. For the same compound, the “Percent Growth” value (U251 (CNS Cancer); Log10 Concentration −6.0) was 46%, the “Mean Optical Densities” value (U251 (CNS Cancer); Log10 Concentration −7.0) was 1.139 and the “Percent Growth” value (U251 (CNS Cancer); Log10 Concentration −7.0) was 82%. For the same compound, the “Mean Optical Densities” value (U251 (CNS Cancer); Log10 Concentration −8.0) was 1.298 and the “Percent Growth” value (U251 (CNS Cancer); Log10 Concentration −8.0) was 100%.

For “4-[5-(2-Phenanthrenyl)-3-(trifluoromethyl)-1H-pyrazol-1-yl]-phenyl -guanidine [Compound 71]”, the COX-2 inhibitory activity (COX-2) was “nor was any measurable COX-2 inhibitory activity detected”, the TGI [1] was 1.66E−06 and the “Percent Growth” value ([1]; Log10 Concentration −4.0) was −39%. The “Percent Growth” value ([1]; Log10 Concentration −5.0) was −98%, the “Percent Growth” value ([1]; Log10 Concentration −6.0) was 27% and the “Percent Growth” value ([1]; Log10 Concentration −7.0) was 78%. The “Percent Growth” value ([1]; Log10 Concentration −8.0) was 47%, the “direct inhibitory effect on immunoprecipitated Akt kinase activity” value (Akt) was “no appreciable direct inhibition” and the phospho-Akt level (phospho-Akt) was “substantial decrease”. The “apoptotic death in PC-3 cells (DNA fragmentation and PARP cleavage)” value (PC-3 cells [3]) was “induced apoptotic death”, the IC50 (PC-3 cells [4]) was 3 µM and the “increase in PDK-1 inhibition potency over compound 59” value (recombinant PDK-1) was “five-fold”.
